We go through two molecules from patent publication US6933295B2, “Substituted isoindoles and the use thereof” (Bayer Aktiengesellschaft, priority 2001, dated 2005).

As a reminder, the melting point is the temperature of the solid-liquid transition.

`CC(C#N)Oc1cccc(CN2C(=O)c3cccc(NC(=O)c4ccc(Cl)s4)c3C2=O)c1` (centres unmarked) [Example 7, 5-Chloro-N-{2-[3-(1-cyanoethoxy)benzyl]-1,3-dioxo-2,3-dihydro-1H-isoindol-4-yl}-2-thiophenecarboxamide] showed a melting point of 88 °C.

Regarding `N#CCOc1ccc(CN2C(=O)c3cccc(NC(=O)c4ccc(Cl)s4)c3C2=O)cc1` [Example 6, 5-Chloro-N-{2-[4-(cyanomethoxy)benzyl]-1,3-dioxo-2,3-dihydro-1H-isoindol-4-yl}-2-thiophenecarboxamide], the melting point was determined as 199 °C.
